One molecule from US9493436B2, “Tyrosine phosphatase inhibitors and uses thereof to modulate the activity of enzymes involved in the pathology of Mycobacterium tuberculosis” (priority 2011, dated 2016) can be followed below.

The target in this test is T1, Lyp (Homo sapiens, UniProt Q9Y2R2).
T1 sequence (Q9Y2R2 1-807): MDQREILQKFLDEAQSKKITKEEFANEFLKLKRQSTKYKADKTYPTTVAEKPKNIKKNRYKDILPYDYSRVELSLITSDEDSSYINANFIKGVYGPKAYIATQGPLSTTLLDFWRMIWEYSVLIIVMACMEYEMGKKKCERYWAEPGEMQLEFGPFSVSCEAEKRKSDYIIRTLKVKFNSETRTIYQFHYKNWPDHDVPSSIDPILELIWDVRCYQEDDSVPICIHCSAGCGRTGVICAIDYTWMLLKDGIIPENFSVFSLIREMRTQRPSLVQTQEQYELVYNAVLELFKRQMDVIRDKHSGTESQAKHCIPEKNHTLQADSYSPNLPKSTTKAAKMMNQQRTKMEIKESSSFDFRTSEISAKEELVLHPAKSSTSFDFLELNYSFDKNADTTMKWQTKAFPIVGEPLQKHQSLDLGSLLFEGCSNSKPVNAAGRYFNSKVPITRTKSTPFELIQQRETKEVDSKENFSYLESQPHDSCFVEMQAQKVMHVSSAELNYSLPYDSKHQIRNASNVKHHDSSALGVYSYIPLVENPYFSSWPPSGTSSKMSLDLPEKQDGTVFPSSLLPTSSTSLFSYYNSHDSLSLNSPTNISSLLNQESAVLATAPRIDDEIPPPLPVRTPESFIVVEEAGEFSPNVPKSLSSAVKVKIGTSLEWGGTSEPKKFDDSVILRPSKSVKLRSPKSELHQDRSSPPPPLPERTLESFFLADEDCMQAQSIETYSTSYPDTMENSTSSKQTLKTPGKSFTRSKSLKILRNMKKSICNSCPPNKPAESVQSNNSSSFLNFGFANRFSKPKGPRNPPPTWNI
Nature of the test: biochemical. The format is biochemical.

`Cn1c(-c2ccccc2C(F)(F)F)c(I)c2cc(C(=O)O)c(O)cc21` [Compound 207a, 6-hydroxy-3-iodo-1-methyl-2-(2-(trifluoromethyl)phenyl)-1H-indole-5-carboxylic acid]: the IC50 was found to be 75 ± 4 µM.

In general, IC50 refers to the concentration at which inhibition is half-maximal. A low value points to greater potency in that assay.
